# According to ChEMBL document CHEMBL1201862, “PubChem BioAssay data set” (2004):
# Several values for one entry are separate records, joined by “and”; a condition that tells them apart may be missing. Equal entries are not always repeated.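 Values below derive from 48-hour exposures of cells grown in 96-well plates, with endpoints linearly interpolated between the two concentrations bracketing the appropriate inhibition level. Here, GI50 denotes the concentration required for 50% inhibition of growth.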 Activity calls are given as the source filed them. No stated cut-off is given here; in the data, active = GI50 up to about 1.1 µM and inactive = higher.
# How the values were obtained:
# Assay in all cases: growth of human tumour cells (NCI), 48 h
# HOP-92 = test system: HOP-92
# PC-3 = test system: PC-3
# SF-295 = test system: SF-295
# SNB-19 = test system: SNB-19
# OVCAR-8 = test system: OVCAR-8
# HL-60 = test system: HL-60
# SK-MEL-2 = test system: SK-MEL-2
# Malme-3M = test system: Malme-3M
# SK-OV-3 = test system: SK-OV-3
# HCC 2998 = test system: HCC 2998
# KM12 = test system: KM12
# NCI/ADR-RES = test system: NCI/ADR-RES
# TK-10 = test system: TK-10
# HCT-15 = test system: HCT-15
# HCT-116 = test system: HCT-116
# U-251 = test system: U-251
# DU-145 = test system: DU-145
# NCI-H23 = test system: NCI-H23
# SN12C = test system: SN12C
# EKVX = test system: EKVX
# A498 = test system: A498
# OVCAR-5 = test system: OVCAR-5
# OVCAR-3 = test system: OVCAR-3
# SF-268 = test system: SF-268
# M14 = test system: M14
# SNB-75 = test system: SNB-75
# ACHN = test system: ACHN
# OVCAR-4 = test system: OVCAR-4
# RXF 393 = test system: RXF 393
# NCI-H226 = test system: NCI-H226
# MDA-N = test system: MDA-N
# MDA-MB-231 = test system: MDA-MB-231
# SW-620 = test system: SW-620
# IGROV-1 = test system: IGROV-1
# MDA-MB-435 = test system: MDA-MB-435
# SF-539 = test system: SF-539
# CAKI-1 = test system: CAKI-1
# SK-MEL-28 = test system: SK-MEL-28
# SK-MEL-5 = test system: SK-MEL-5
# A549 = test system: A549
# COLO 205 = test system: COLO 205
# HT-29 = test system: HT-29
# UO-31 = test system: UO-31
# K562 = test system: K562
# HOP-62 = test system: HOP-62
# MOLT-4 = test system: MOLT-4
# LOX IMVI = test system: LOX IMVI
# MCF7 = test system: MCF7
# T47D = test system: T47D
# UACC-62 = test system: UACC-62
# 786-0 = test system: 786-0
# NCI-H522 = test system: NCI-H522
# RPMI-8226 = test system: RPMI-8226
# UACC-257 = test system: UACC-257
# CCRF-CEM = test system: CCRF-CEM
structure (smiles),measurement,setting,value
O=C1C=C2C=CC3CC2(O1)C1CCCCN31 (centres undefined),GI50,HOP-92,12.7 µM (inactive) and 18.3 µM (inactive) and 22.8 µM (inactive)
same,GI50,PC-3,21.5 µM (inactive) and 40.4 µM (inactive) and 25.1 µM (inactive)
same,GI50,SF-295,23.3 µM (inactive) and 35.3 µM (inactive) and 45.2 µM (inactive)
same,GI50,SNB-19,28.3 µM (inactive) and 32.4 µM (inactive) and 18.7 µM (inactive)
same,GI50,OVCAR-8,17.3 µM (inactive) and 28.3 µM (inactive) and 19.1 µM (inactive)
same,GI50,HL-60,17.2 µM (inactive)
same,GI50,SK-MEL-2,28.1 µM (inactive) and 16.8 µM (inactive) and 27.9 µM (inactive)
same,GI50,Malme-3M,14.9 µM (inactive)
same,GI50,SK-OV-3,20.5 µM (inactive) and 33.7 µM (inactive) and 30.6 µM (inactive)
same,GI50,HCC 2998,16.8 µM (inactive) and 20.3 µM (inactive) and 27.3 µM (inactive)
same,GI50,KM12,19.2 µM (inactive) and 14.8 µM (inactive) and 12.5 µM (inactive)
CSc1ccc(C(=C=C=C(c2ccc(SC)s2)c2ccc(SC)s2)c2ccc(SC)s2)s1,GI50,HOP-92,> 10 µM (inactive)
same,GI50,NCI/ADR-RES,> 10 µM (inactive)
same,GI50,TK-10,> 10 µM (inactive)
same,GI50,HCT-15,> 10 µM
same,GI50,PC-3,> 10 µM (inactive)
same,GI50,HCT-116,> 10 µM (inactive)
same,GI50,U-251,> 10 µM (inactive)
same,GI50,DU-145,> 10 µM (inactive)
same,GI50,NCI-H23,> 10 µM (inactive)
same,GI50,SF-295,> 10 µM (inactive)
same,GI50,SN12C,> 10 µM (inactive)
same,GI50,EKVX,> 10 µM (inactive)
same,GI50,A498,> 10 µM (inactive)
same,GI50,OVCAR-5,> 10 µM (inactive)
same,GI50,OVCAR-3,> 10 µM (inactive)
same,GI50,SF-268,> 10 µM (inactive)
same,GI50,SNB-19,> 10 µM (inactive)
same,GI50,M14,> 10 µM (inactive)
same,GI50,OVCAR-8,> 10 µM (inactive)
same,GI50,SNB-75,> 10 µM (inactive)
same,GI50,ACHN,> 10 µM (inactive)
same,GI50,OVCAR-4,> 10 µM (inactive)
same,GI50,RXF 393,> 10 µM (inactive)
same,GI50,NCI-H226,> 10 µM (inactive)
same,GI50,MDA-N,> 10 µM (inactive)
same,GI50,MDA-MB-231,> 10 µM (inactive)
same,GI50,SW-620,> 10 µM (inactive)
same,GI50,IGROV-1,> 10 µM (inactive)
same,GI50,MDA-MB-435,> 10 µM (inactive)
same,GI50,SF-539,> 10 µM (inactive)
same,GI50,CAKI-1,> 10 µM (inactive)
same,GI50,SK-MEL-28,> 10 µM (inactive)
same,GI50,KM12,> 10 µM (inactive)
same,GI50,SK-MEL-5,> 10 µM (inactive)
same,GI50,A549,> 10 µM (inactive)
same,GI50,COLO 205,> 10 µM (inactive)
same,GI50,HT-29,> 10 µM (inactive)
same,GI50,UO-31,> 10 µM (inactive)
NNC(=O)Nc1cccnc1,GI50,K562,> 100 µM (inactive)
same,GI50,HOP-92,> 100 µM (inactive)
same,GI50,NCI/ADR-RES,> 100 µM (inactive)
same,GI50,HOP-62,> 100 µM (inactive)
same,GI50,TK-10,> 100 µM (inactive)
same,GI50,MOLT-4,> 10 µM (inactive)
same,GI50,HCT-15,> 100 µM
same,GI50,PC-3,> 100 µM (inactive)
same,GI50,HCT-116,> 100 µM (inactive)
same,GI50,U-251,> 100 µM (inactive)
same,GI50,DU-145,> 100 µM (inactive)
same,GI50,NCI-H23,> 100 µM (inactive)
same,GI50,SF-295,> 100 µM (inactive)
same,GI50,SN12C,> 100 µM (inactive)
same,GI50,EKVX,> 100 µM (inactive)
same,GI50,A498,> 100 µM (inactive)
same,GI50,OVCAR-5,> 100 µM (inactive)
same,GI50,OVCAR-3,> 100 µM (inactive)
same,GI50,SNB-19,> 100 µM (inactive)
same,GI50,LOX IMVI,> 100 µM (inactive)
same,GI50,M14,> 100 µM (inactive)
same,GI50,MCF7,> 100 µM (inactive)
same,GI50,OVCAR-8,> 100 µM (inactive)
same,GI50,SNB-75,> 100 µM (inactive)
same,GI50,ACHN,> 100 µM (inactive)
same,GI50,OVCAR-4,> 100 µM (inactive)
same,GI50,RXF 393,> 100 µM (inactive)
same,GI50,NCI-H226,> 100 µM (inactive)
same,GI50,MDA-N,> 100 µM (inactive)
same,GI50,T47D,> 100 µM (inactive)
same,GI50,HL-60,> 100 µM (inactive)
same,GI50,SK-MEL-2,> 100 µM (inactive)
same,GI50,UACC-62,> 100 µM (inactive)
same,GI50,MDA-MB-231,> 100 µM (inactive)
same,GI50,Malme-3M,> 100 µM (inactive)
same,GI50,SW-620,> 100 µM (inactive)
same,GI50,786-0,> 100 µM (inactive)
same,GI50,IGROV-1,> 100 µM (inactive)
same,GI50,MDA-MB-435,> 100 µM (inactive)
same,GI50,SF-539,> 100 µM (inactive)
same,GI50,NCI-H522,> 100 µM (inactive)
same,GI50,CAKI-1,> 100 µM (inactive)
same,GI50,SK-OV-3,> 100 µM (inactive)
same,GI50,SK-MEL-28,> 100 µM (inactive)
same,GI50,HCC 2998,> 100 µM (inactive)
same,GI50,KM12,> 100 µM (inactive)
same,GI50,RPMI-8226,> 100 µM (inactive)
same,GI50,SK-MEL-5,> 100 µM (inactive)
same,GI50,A549,> 100 µM (inactive)
same,GI50,COLO 205,> 100 µM (inactive)
same,GI50,UACC-257,> 100 µM (inactive)
same,GI50,HT-29,> 100 µM (inactive)
same,GI50,UO-31,> 100 µM (inactive)
same,GI50,CCRF-CEM,> 100 µM (inactive)
O=C(c1ccc(Cl)c(Cl)c1)N1CCN(C(=O)c2ccc(Cl)c(Cl)c2)C1=S,GI50,RPMI-8226,1.83 µM (inactive)
